The conditions of series [1]: cited from earlier work.
Series [2] can be described thus: In vivo pharmacokinetic study of DCCTX and Gom A in rats. The following applies: Sprague-Dawley, rat, plasma, iv, 300 mg/kg; for AUC(0-t): read-out: AUC0–8h; for MRT last: read-out: MRT0–8h. On the procedure:
Rats were randomly divided into five groups (groups 1−5, n = 6), respectively. To determine the short- and long-term effect of single-dose Gom A pretreatment on CYP3A metabolism of CTX, Gom A and CTX were administered to rats with different time intervals in groups 2−5. In brief, rats in group 1 (CTX alone group) were i.g. administered with saline (10 mL/kg, vehicle control), and rats in groups 2−5 were given Gom A (i.g.) at the dose of 20.8 mg/kg (50 μmol/kg). Rats in group 1 were intravenously (i.v.) administered with CTX (300 mg/kg) 0.5 h after saline administration. In groups 2–5, rats were given CTX (i.v.) 0.5, 6, 24 and 72 h after Gom A pretreatment, respectively. Mesna was injected (420 mg/kg, i.v.) 1 hour after CTX administration in all groups to prevent bladder injury in accordance with clinical practice.
Blood samples were collected from the postocular vein at 0.083, 0.25, 0.5, 1, 2, 3, 4, 6, 8, 12 and 24 h after CTX injection. Samples were transferred to heparin tubes and centrifuged at 5000 rpm for 15 min. Plasma was obtained and stored at −20 °C until required for further analysis.
UHPLC-MS/MS method (I): 6OH-Tes concentrations were analyzed according to the previous reports with slight modifications (Supplementary Figure S3). The terminated sample were centrifuged at 14,000 rpm for 10 min, 10 μL of each supernatant was injected into the UHPLC-MS/MS system for analysis. In general, an Agilent Elipse Plus 2.1 × 50 mm column packed with 1.8 µm C18 was applied. The column temperature was set as 30 °C at a flow rate of 0.3 mL/min. The mobile phase was consisted of aqueous 1% formic acid with the addition of 10 mM ammonium acetate solution (A) and methanol (B) with the gradient elution program set as follow: 5–50–80% B from 0–1–4 min. The ion transitions were m/z 305.0→269.0 for 6OH-Tes and m/z 181.0→111.0 for phenacetin (IS-I). UHPLC-MS method (II): DCCTX concentrations were determined using our previously developed UHPLC-MS/MS method (Supplementary Figure S4). For pharmacokinetic study, plasma samples were diluted 30-fold with plasma from drug-free rats. After vortexing for 2 min, 100 μL of each diluted sample was mixed with 400 μL acetonitrile (containing 6 ng/mL TNZ (IS-II), vortexed, and centrifuged at 14,000 rpm for 10 min. 100 μL supernatant of each sample was mixed with 400 μL aqueous solution containing 10% acetonitrile followed by a rough centrifugation. For HLMs inhibition study, samples were vortexed for 1 min after reaction termination, and the mixture was then centrifuged at 14,000 rpm for 10 min. After centrifugation, the obtained supernatant (5 μL) was injected into the UHPLC-MS/MS system, using methanol/10 mM ammonium acetate aqueous solution as the mobile phase at a flow rate of 0.25 mL/min. The ion transitions were set as m/z 199.2→78 for DCCTX and m/z 248.1→121.1 for TNZ (IS-II). UHPLC-MS/MS method (III): Gom A concentrations were determined using slightly modified LC/MS method which developed by our laboratory. Briefly, a 100 µL plasma sample was transferred to a 10 mL centrifuge tube with addition of 20 µL IS solution and 20 µL water/acetonitrile (90:10, v/v), vortexed for 30 s and then extracted using 3 mL methyl tertiary butyl ether. After extraction, the sample was centrifuged at 5000 rpm for 10 min. The organic layer was quantitatively transferred to a 5 mL glass tube and evaporated to dryness at 35 °C. Then the dried extract was reconstituted in 100 µL solvent (water–acetonitrile, 20:80, v/v) followed by injection of 10 µL aliquot into LC-MS/MS system. Separation was performed on a Zorbax SB-C18 reserved-phase column (100 mm × 2.1 mm i.d., 3.5 µm) with the mobile phase consisting of acetonitrile, methanol and water −0.1% formic acid (72:18:10, v/v/v) at a flow rate of 0.3 mL/min. The ion transitions were set as m/z 399→329 for Gom A and m/z 387.0→145.0 for bifendate (IS-III). […]

The mark [3] stands for this setting: Group 1: CTX 300 mg/kg i.v. alone (saline 0.5 h before).
Where [4] appears, read: Group 2: CTX 300 mg/kg i.v. 0.5 h after Gom A 20.8 mg/kg i.g.
Setting [5] is: Group 3: CTX 300 mg/kg i.v. 6 h after Gom A 20.8 mg/kg i.g.
Where [6] appears, read: Group 4: CTX 300 mg/kg i.v. 24 h after Gom A 20.8 mg/kg i.g.
Setting [7] is: Group 5: CTX 300 mg/kg i.v. 72 h after Gom A 20.8 mg/kg i.g.

Like-named read-outs stand apart in the source and are kept apart here.

Regarding `O=P1(N(CCCl)CCCl)NCCCO1` (stereo not drawn) [CTX, cyclophosphamide], the “plasma protein binding rate” value in series [1] is given as “approximately 9%”.
By Cmax is commonly meant the peak of the concentration-time curve. In general, Tmax refers to the time at which the peak concentration occurs. By half-life is commonly meant the time in which the quantity being followed falls by half. Higher therefore signals slow decline. As to `O=P1(NCCCl)NCCCO1` (stereo not drawn) [DCCTX, 2-dechloroethylcyclophosphamide], the maximum concentration (Cmax) in series [2] (setting [3]) was 8600 ± 1300 ng/mL; in series [2] (setting [4]), 1900 ± 200 ng/mL; in series [2] (setting [5]) it was 2600 ± 500 ng/mL; in series [2] (setting [6]) it was 16200 ± 1200 ng/mL; in series [2] (setting [7]) it was 20000 ± 3100 ng/mL. Moreover, the Tmax in series [2] (setting [3]) was 2 ± 0.1 h; in series [2] (setting [4]), 2.9 ± 0.6 h; in series [2] (setting [5]) it was 3.7 ± 0.8 h; in series [2] (setting [6]), 2 ± 0.1 h; in series [2] (setting [7]), 3.3 ± 0.5 h. Moreover, the half-life is 2.2 ± 0.5 h in series [2] (setting [3]); 3.1 ± 0.9 h in series [2] (setting [4]); 3.2 ± 0.8 h in series [2] (setting [5]); 2 ± 0.4 h in series [2] (setting [6]); 3.8 ± 1.2 h in series [2] (setting [7]). Further, the AUC(0-t) in series [2] (setting [3]) was determined as 32500 ± 8400 ng·h/mL; in series [2] (setting [4]) it was 8900 ± 300 ng·h/mL; in series [2] (setting [5]) it was 11800 ± 2500 ng·h/mL; in series [2] (setting [6]) it was 65900 ± 12400 ng·h/mL; in series [2] (setting [7]) it was 79200 ± 19100 ng·h/mL. Further, the MRT last in series [2] (setting [3]) is 3.3 ± 0.2 h; in series [2] (setting [4]), 3.8 ± 0.2 h; in series [2] (setting [5]), 4.2 ± 0.1 h; in series [2] (setting [6]), 3.3 ± 0.2 h; in series [2] (setting [7]), 3.7 ± 0.2 h.
For `C=CC[C@@H]1/C=C(\C)C[C@H](C)C[C@H](OC)[C@H]2O[C@@](O)(C(=O)C(=O)N3CCCC[C@H]3C(=O)O[C@H](/C(C)=C/[C@@H]3CC[C@@H](O)[C@H](OC)C3)[C@H](C)[C@@H](O)CC1=O)[C@H](C)C[C@@H]2OC` [Tacrolimus], the “plasma protein binding” value in series [1] is “strongly bound to plasma protein”.

(Values after publication PMC6152024 (Molecules : A Journal of Synthetic Chemistry and Natural …, 2017).)
